We go through three compounds from ChEMBL document CHEMBL1151182, “Phytochemical and larvicidal studies on Stemona curtisii: structure of a new pyrido[1,2-a]azepine Stemona alkaloid” (2004).

Molecules are shown by their SMILES. ≈ marks a conversion by molar mass, not a printed value.

The term LC50 denotes the concentration that kills 50% of the test population. A lower LC50 goes with greater toxicity.

In the assay the test system is Anopheles minimus. The assay is described as follows: Larvicidal activity in Anopheles minimus HO by WHO method. In kind it is functional.
Turning to `COC1=C(C)C(=O)O/C1=C1\O[C@]23CCCN4[C@H]([C@@H]5C[C@H](C)C(=O)O5)[C@H](C[C@H]4[C@H]2[C@@H]1C)O3` [OXYPROTOSTEMONINE], the LC50 amounted to 4 µg/mL (≈ 9.27 µM).
Then `COC1=C(C)C(=O)O/C1=C1\O[C@@]23CCCN4CCC[C@H](O2)[C@H]4[C@H]3[C@@H]1C` [STEMOCURTISINE], with 18 µg/mL (≈ 51.8 µM).
Then `CC[C@H](O)[C@@H]1CC[C@@H]2O[C@@]34CCCN1[C@@H]2[C@H]3[C@H](C)/C(=C1/OC(=O)C(C)=C1OC)O4` [STEMOCURTISINOL], with 39 µg/mL (≈ 96.2 µM).
